Results from patent US9555029B2 (HIKMA PHARMACEUTICALS, priority 2013, dated 2017).
Where two headings read alike, the source gives them in different places.

How the values were obtained:
[1] = for AUCT/∞ / Kel / T1/2el: mean
[2] = clinical; conditions: human, plasma, oral
[3] = cited from earlier work; for Kel / T1/2el: arithmetic mean; for AUCT / Cmax: geometric mean
[4] = Colchicine pharmacokinetics coadministered with voriconazole
[5] = cited from earlier work; for AUCT / Cmax: geometric mean
[6] = clinical; conditions: male, human, in vivo
Text: Subjects were included only if they were not older than 45 years (as opposed to no upper limit). Also, in inclusion criteria the lower threshold for the body mass index was 21.00 (as opposed to 18.00) kg/m^2.

[7] = Treatment-1 (day 1): colchicine 0.6 mg alone, fasted, cimetidine study
[8] = Treatment-2 (day 9): colchicine 0.6 mg + cimetidine 800 mg after double dose day 4, once daily days 5-8, fasted
[9] = Treatment-1: colchicine 0.6 mg alone (day 1, fasted), cyclosporine study
[10] = Treatment-2: colchicine 0.6 mg + cyclosporine 100 mg once (day 15)
[11] = Treatment-1 (day 1): colchicine 0.6 mg alone, fasted, voriconazole study, mean
[12] = Treatment-2 (day 9): colchicine 0.6 mg + voriconazole 200 mg after twice daily days 4-8, fasted, mean
[13] = Treatment-1: colchicine 0.6 mg alone (day 1, fasted), ketoconazole study, arithmetic mean
[14] = Treatment-1: colchicine 0.6 mg alone (day 1, fasted), ketoconazole study
[15] = Treatment-2: colchicine 0.6 mg (day 19) + ketoconazole 200 mg twice daily

## COc1cc2c(c(OC)c1OC)-c1ccc(OC)c(=O)cc1[C@@H](NC(C)=O)CC2 [Colchicine, (S)N-(5,6,7,9-tetrahydro-1,2,3,10-tetramethoxy-9-oxobenzo[alpha]heptalen-7-yl)acetamide]
[1]; [7]
  AUCT/∞: 85.29%
  Kel: 0.0201 h⁻¹
  T1/2el: 35.46 h
[1]; [8]
  AUCT/∞: 86.53%
  Kel: 0.0222 h⁻¹
  T1/2el: 31.54 h
[1]; coadministration with cimetidine vs colchicine alone
  Decrease of colchicine Cmax: 33%
[1]; coadministration with cimetidine vs colchicine alone, not significant
  Decrease of colchicine AUC: 15%
[2]; both, AUCT, Treatment-2 (day 9): colchicine 0.6 mg + cimetidine 800 mg after double dose day 4, once daily days 5-8, fasted, mean
  AUC(0-t): 18.1 ng·h/mL
[2]; 0.6 mg
  CL/F: 465 mL/min
  Tmax: 1.25 h
  Vd/F: 1410 L
[2]; 0.6 mg, AUCT GEOMETRIC LSMEANS, Treatment-1: colchicine 0.6 mg alone, cimetidine study
  AUC(0-t): 19.3 ng·h/mL
[2]; 0.6 mg, AUCT, Treatment-1 (day 1): colchicine 0.6 mg alone, fasted, cimetidine study, mean
  AUC(0-t): 20.4 ng·h/mL
[2]; 0.6 mg, AUC∞ GEOMETRIC LSMEANS, Treatment-1: colchicine 0.6 mg alone, cimetidine study
  AUC(0-inf): 22.6 ng·h/mL
[2]; 0.6 mg, AUC∞, Treatment-1 (day 1): colchicine 0.6 mg alone, fasted, cimetidine study, mean
  AUC(0-inf): 24 ng·h/mL
[2]; 0.6 mg, Cmax GEOMETRIC LSMEANS, Treatment-1: colchicine 0.6 mg alone, cimetidine study
  Cmax: 2.78 ng/mL
[2]; 0.6 mg, Cmax, Treatment-1 (day 1): colchicine 0.6 mg alone, fasted, cimetidine study, mean
  Cmax: 3 ng/mL
[2]; AUCT GEOMETRIC LSMEANS, Treatment-2: colchicine 0.6 mg + cimetidine
  AUC(0-t): 16.7 ng·h/mL
[2]; AUC∞ GEOMETRIC LSMEANS, Treatment-2: colchicine 0.6 mg + cimetidine
  AUC(0-inf): 19.3 ng·h/mL
[2]; AUC∞, Treatment-2 (day 9): colchicine 0.6 mg + cimetidine 800 mg after double dose day 4, once daily days 5-8, fasted, mean
  AUC(0-inf): 21 ng·h/mL
[2]; Cmax GEOMETRIC LSMEANS, Treatment-2: colchicine 0.6 mg + cimetidine
  Cmax: 1.88 ng/mL
[2]; Cmax, Treatment-2 (day 9): colchicine 0.6 mg + cimetidine 800 mg after double dose day 4, once daily days 5-8, fasted, mean
  Cmax: 2.11 ng/mL
[3]; [9]
  Kel: 0.147 h⁻¹
  T1/2el: 6.777 h
  CLTOT/F: 48.24 L/h
  AUCT: 12,555 pg · h/mL
  Cmax: 2,720 pg/mL
[3]; [10]
  Kel: 0.038 h⁻¹
  T1/2el: 20.65 h
  CLTOT/F: 13.42 L/h
  AUCT: 29,830 pg · h/mL
  Cmax: 8,820 pg/mL
[4]; [11]
  AUCT/∞: 87.75%
  Kel: 0.0240 h⁻¹
  T1/2el: 29.63 h
[4]; [12]
  AUCT/∞: 86.14%
  Kel: 0.0227 h⁻¹
  T1/2el: 31.30 h
[4]; coadministration with voriconazole vs colchicine alone
  Decrease of colchicine Cmax: about 20%
[4]; male, human, in vivo, 0.6 mg
  CL/F: 550 mL/min
  Tmax: 1.38 h
  Vd/F: 1350 L
[4]; male, human, in vivo, 0.6 mg, AUCT GEOMETRIC LSMEANS, Treatment-1: colchicine 0.6 mg alone, voriconazole study
  AUC(0-t): 17.9 ng·h/mL
[4]; male, human, in vivo, 0.6 mg, AUCT, Treatment-1 (day 1): colchicine 0.6 mg alone, fasted, voriconazole study, mean
  AUC(0-t): 19.6 ng·h/mL
[4]; male, human, in vivo, 0.6 mg, AUC∞ GEOMETRIC LSMEANS, Treatment-1: colchicine 0.6 mg alone, voriconazole study
  AUC(0-inf): 20.5 ng·h/mL
[4]; male, human, in vivo, 0.6 mg, AUC∞, Treatment-1 (day 1): colchicine 0.6 mg alone, fasted, voriconazole study, mean
  AUC(0-inf): 22.4 ng·h/mL
[4]; male, human, in vivo, 0.6 mg, Cmax GEOMETRIC LSMEANS, Treatment-1: colchicine 0.6 mg alone, voriconazole study
  Cmax: 2.3 ng/mL
[4]; male, human, in vivo, 0.6 mg, Cmax, Treatment-1 (day 1): colchicine 0.6 mg alone, fasted, voriconazole study, mean
  Cmax: 2.66 ng/mL
[4]; male, human, in vivo, AUCT GEOMETRIC LSMEANS, Treatment-2: colchicine 0.6 mg + voriconazole
  AUC(0-t): 19.5 ng·h/mL
[4]; male, human, in vivo, AUCT, Treatment-2 (day 9): colchicine 0.6 mg + voriconazole 200 mg after twice daily days 4-8, fasted, mean
  AUC(0-t): 20.7 ng·h/mL
[4]; male, human, in vivo, AUC∞ GEOMETRIC LSMEANS, Treatment-2: colchicine 0.6 mg + voriconazole
  AUC(0-inf): 22.7 ng·h/mL
[4]; male, human, in vivo, AUC∞, Treatment-2 (day 9): colchicine 0.6 mg + voriconazole 200 mg after twice daily days 4-8, fasted, mean
  AUC(0-inf): 24.1 ng·h/mL
[4]; male, human, in vivo, Cmax GEOMETRIC LSMEANS, Treatment-2: colchicine 0.6 mg + voriconazole
  Cmax: 1.83 ng/mL
[4]; male, human, in vivo, Cmax, Treatment-2 (day 9): colchicine 0.6 mg + voriconazole 200 mg after twice daily days 4-8, fasted, mean
  Cmax: 2.06 ng/mL
[5]; [13]
  Kel: 0.1491 h⁻¹
  T1/2el: 6.28 h
[5]; [14]
  CLTOT/F: 49.3 L/h
  AUCT: 11,990 pg · h/mL
  Cmax: 2,780 pg/mL
[5]; Treatment-2: colchicine 0.6 mg (day 19) + ketoconazole 200 mg twice daily, arithmetic mean
  T1/2el: 26.06 h
[5]; [15]
  CLTOT/F: 14.8 L/h
  AUCT: 34,380 pg · h/mL
  Cmax: 5,270 pg/mL
[6]; 0.6 mg
  CL/F: 558 mL/min
  Tmax: 1.5 h
  Vd/F: 1410 L
[6]; 0.6 mg, AUCT GEOMETRIC LSMEANS, Treatment-1: colchicine 0.6 mg alone, propafenone study
  AUC(0-t): 16.2 ng·h/mL
[6]; 0.6 mg, AUCT, Treatment-1 (day 1): colchicine 0.6 mg alone, fasted, propafenone study, mean
  AUC(0-t): 16.6 ng·h/mL
[6]; 0.6 mg, AUC∞ GEOMETRIC LSMEANS, Treatment-1: colchicine 0.6 mg alone, propafenone study
  AUC(0-inf): 18.4 ng·h/mL
[6]; 0.6 mg, AUC∞, Treatment-1 (day 1): colchicine 0.6 mg alone, fasted, propafenone study, mean
  AUC(0-inf): 18.9 ng·h/mL
[6]; 0.6 mg, Cmax GEOMETRIC LSMEANS, Treatment-1: colchicine 0.6 mg alone, propafenone study
  Cmax: 2.05 ng/mL
[6]; 0.6 mg, Cmax, Treatment-1 (day 1): colchicine 0.6 mg alone, fasted, propafenone study, mean
  Cmax: 2.12 ng/mL
[6]; AUCT GEOMETRIC LSMEANS, Treatment-2: colchicine 0.6 mg + propafenone
  AUC(0-t): 16.4 ng·h/mL
[6]; AUCT, Treatment-2 (day 9): colchicine 0.6 mg + propafenone 225 mg after twice daily days 4-8, fasted, mean
  AUC(0-t): 16.8 ng·h/mL
[6]; AUC∞ GEOMETRIC LSMEANS, Treatment-2: colchicine 0.6 mg + propafenone
  AUC(0-inf): 18.4 ng·h/mL
[6]; AUC∞, Treatment-2 (day 9): colchicine 0.6 mg + propafenone 225 mg after twice daily days 4-8, fasted, mean
  AUC(0-inf): 18.9 ng·h/mL
[6]; Cmax GEOMETRIC LSMEANS, Treatment-2: colchicine 0.6 mg + propafenone
  Cmax: 2.18 ng/mL
[6]; Cmax, Treatment-2 (day 9): colchicine 0.6 mg + propafenone 225 mg after twice daily days 4-8, fasted, mean
  Cmax: 2.21 ng/mL
